From patent US10035799B2, “COMT inhibiting methods and compositions” (Lieber Institute for Brain Development, priority 2015, dated 2018)

molecular target: T1, catechol-O-methyltransferase (COMT) (Homo sapiens, UniProt P21964); assay: COMT inhibition assay (HTRF, production of S-adenosyl homocysteine); type: biochemical; conditions: recombinant human COMT, HTRF SAH production; MB-COMT or S-COMT not stated for Table 1
T1 construct: M51A variant) was expressed in HEK 293F cells
T1 sequence (P21964 52-271 limits assumed): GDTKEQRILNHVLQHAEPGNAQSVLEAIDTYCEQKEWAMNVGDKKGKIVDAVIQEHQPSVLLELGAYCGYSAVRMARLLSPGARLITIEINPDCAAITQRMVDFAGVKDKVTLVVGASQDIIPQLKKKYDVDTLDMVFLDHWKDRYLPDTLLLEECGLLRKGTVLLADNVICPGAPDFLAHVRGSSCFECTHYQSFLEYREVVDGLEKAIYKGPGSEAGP
Description: The ability of compounds to inhibit the activity of catechol-O-methyltransferase (COMT) was determined by a homogenous time-resolved fluorescent (HTRF) assay (Lina et al, 2012; kit from CisBio, Codolet, France). This assay measures the production of S-adenosyl homocysteine (SAH) from the methyl donor S-adenosyl methionine. Recombinant human membrane bound COMT (MB-COMT; M51A variant) was expressed in HEK 293F cells using 293Fectin (Life Technologies, Gent, Belgium) and membranes prepared. The membranes were re-suspended in buffer (20 mM Tris/HCl pH 7; 10 mM glycerol; 2 mM MgCl2; 10 mM NaCl), aliquoted and stored at −80° C. Recombinant human soluble COMT(S-COMT), Va1158 variant and a hexa-His tag on the N-terminus, was purified using Ni-NTA chromatography, the His tag removed and stored in buffer as above.
For the human MB-COMT assay, membranes (62 ng/well) were incubated with SAM (20 μM final, CisBio) and dopamine (1.5 μM final; Sigma H8502, Diegem, Belgium) in the presence or absence of varying concentrations (typically 10 concentrations ranging from 10 μM to 0.1 nM) of compound for 40 min at 37° C. in 384-well microtitre plates (10 μl per well final volume). The reaction was terminated by the addition of acylation buffer and the amount of SAH produced determined according to manufacturer's instructions. Specific inhibition as that inhibited by a high concentration of tolcapone (10 μM; synthesised at UCB) and all experiments were validated using a control curve to tolcapone.
The human S-COMT assay was performed as above except that 0.15 ng enzyme/well was incubated with SAM (20 μM final) and dopamine (100 μM final) for 15 min at 37° C. and SAH production determined.
HTRF readings were performed using a Perkin Elmer Envision and results expressed as concentration of SAH produced using a standard curve. Results were analysed using non-linear regression to the 4-parameter logistic equation and pIC50 (−log 10 concentration of drug which inhibits enzyme activity/SAH production by 50%) determined.

Structure (SMILES)	Activity range (pIC50, COMT inhibition)
O=S(=O)(c1cc(F)c(O)c2ncccc12)N1CCN(Cc2ccc(F)cc2)CC1 [Example 122, 7-fluoro-5-[4-[(4-fluorophenyl)methyl]piperazin-1-yl]sulfonyl-quinolin-8-ol]	++ (a pIC50 of from about great than 6 to 7)
Cc1ccc(S(=O)(=O)c2cc(I)c(O)c3ncccc23)cc1 [Example 107, 7-iodo-5-(p-tolylsulfonyl)quinolin-8-ol]	++ (a pIC50 of from about great than 6 to 7)
O=S(=O)(c1cc(Cl)cc(Cl)c1)c1ccc(O)c2ncccc12 [Example 8, 5-(3,5-dichlorophenyl)sulfonylquinolin-8-ol]	++ (a pIC50 of from about great than 6 to 7)
Cc1ccc(CNS(=O)(=O)c2ccc(O)c3ncccc23)cc1 [Example 44, 8-hydroxy-N-(4-methylbenzyl)quinoline-5-sulfonamide]	++ (a pIC50 of from about great than 6 to 7)
COCCCN1CCN(S(=O)(=O)c2ccc(O)c3ncccc23)CC1 [Example 89, 5-[4-(3-methoxypropyl)piperazin-1-yl]sulfonylquinolin-8-ol]	++ (a pIC50 of from about great than 6 to 7)
Cc1ccc(N(C)S(=O)(=O)c2ccc(O)c3ncccc23)cc1 [Example 46, 8-hydroxy-N-(4-methylphenyl)-N-methylquinoline-5-sulfonamide]	++ (a pIC50 of from about great than 6 to 7)
O=S(=O)(c1ccc(O)c2ncccc12)N1CCOCC1 [Example 64, 5-(4-morpholin-1-yl)sulfonylquinolin-8-ol]	++ (a pIC50 of from about great than 6 to 7)
C[C@H](c1ccccc1)N(C)S(=O)(=O)c1cc(Cl)c(O)c2ncccc12 [Example 117, 7-chloro-8-hydroxy-N-methyl-N-[(1R)-1-phenylethyl]quinoline-5-sulfonamide]	++ (a pIC50 of from about great than 6 to 7)
Cc1ccc(S(=O)(=O)c2cc(Br)c(O)c3ncccc23)cc1 [Example 108, 7-bromo-5-(p-tolylsulfonyl)quinolin-8-ol]	++ (a pIC50 of from about great than 6 to 7)
O=S(=O)(c1ccc(O)c2ncccc12)N1CCCC1c1ccccc1C(F)(F)F (centres unmarked) [Example 81, 5-[2-[2-(trifluoromethyl)phenyl]pyrrolidin-1-yl]sulfonylquinolin-8-ol]	++ (a pIC50 of from about great than 6 to 7)
CN(Cc1ccc2ccccc2c1)S(=O)(=O)c1ccc(O)c2ncccc12 [Example 55, 8-hydroxy-N-methyl-N-(2-naphthylmethyl)quinoline-5-sulfonamide]	++ (a pIC50 of from about great than 6 to 7)
C[C@@H]1CCCN1S(=O)(=O)c1cc(Cl)c(O)c2ncccc12 [Example 119, 7-chloro-5-[(2R)-2-methylpyrrolidin-1-yl]sulfonyl-quinolin-8-ol]	++ (a pIC50 of from about great than 6 to 7)
CCN(Cc1ccncc1)S(=O)(=O)c1ccc(O)c2ncccc12 [Example 66, N-ethyl-8-hydroxy-N-(4-pyridylmethyl)quinoline-5-sulfonamide]	++ (a pIC50 of from about great than 6 to 7)
O=S(=O)(c1ccc(O)c2ncccc12)C1CCN(Cc2cccc(Cl)c2Cl)CC1 [Example 38, 5-[[1-[(2,3-dichlorophenyl)methyl]-4-piperidyl]sulfonyl]quinolin-8-ol]	++ (a pIC50 of from about great than 6 to 7)
O=S(=O)(c1ccc(O)c2ncccc12)N1CCN(c2ccc(F)cc2)CC1 [Example 96, 5-[4-(4-fluorophenyl)piperazin-1-yl]sulfonylquinolin-8-ol]	++ (a pIC50 of from about great than 6 to 7)
CC1CN(C(=O)OC(C)(C)C)CCN1S(=O)(=O)c1ccc(O)c2ncccc12 (centres unmarked) [Example 105, tert-butyl 4-[(8-hydroxy-5-quinolyl)sulfonyl]-3-methyl-piperazine-1-carboxylate]	++ (a pIC50 of from about great than 6 to 7)
O=S(=O)(c1ccc(O)c2ncccc12)N1CCCC1c1ccccn1 (centres unmarked) [Example 80, 5-[2-(2-pyridyl)pyrrolidin-1-yl]sulfonylquinolin-8-ol]	++ (a pIC50 of from about great than 6 to 7)

Next, values leading:

Activity range (pIC50, COMT inhibition)	Structure (SMILES)
+++ (a pIC50 of above about 7)	O=S(=O)(c1cccc(-c2cccc3ncccc23)c1)c1ccc(O)c2ncccc12 [Example 25, 5-[3-(5-quinolyl)phenyl]sulfonylquinolin-8-ol]
+ (a pIC50 of from about 4.5 to 6)	O=S(=O)(c1cc(Br)c(O)c2ncccc12)N1CCN(Cc2ccc(F)cc2)CC1 [Example 121, 7-bromo-5-[4-[(4-fluorophenyl)methyl]piperazin-1-yl]sulfonyl-quinolin-8-ol]
+++ (a pIC50 of above about 7)	O=S(=O)(c1ccc(C(F)(F)F)cc1)c1ccc(O)c2ncccc12 [Example 11, 5-[4-(trifluoromethyl)phenyl]sulfonylquinolin-8-ol]
+++ (a pIC50 of above about 7)	O=S(=O)(c1ccc(O)c2ncccc12)N1CCCCC1 [Example 63, 5-(piperidin-1-yl)sulfonylquinolin-8-ol]
+++ (a pIC50 of above about 7)	O=S(=O)(c1ccccn1)c1ccc(O)c2ncccc12 [Example 16, 5-(2-pyridylsulfonyl)quinolin-8-ol]
+++ (a pIC50 of above about 7)	Cc1ccc(CCS(=O)(=O)c2ccc(O)c3ncccc23)cc1 [Example 29, 5-[2-(p-tolyl)ethylsulfonyl]quinolin-8-ol]
+++ (a pIC50 of above about 7)	O=S(=O)(c1ccc(O)c2ncccc12)N1CCN(Cc2ccc(F)cc2)CC1 [Example 101, 5-[4-[(4-fluorophenyl)methyl]piperazin-1-yl]sulfonylquinolin-8-ol]
+++ (a pIC50 of above about 7)	CN(Cc1ccc(C(F)(F)F)cc1)S(=O)(=O)c1ccc(O)c2ncccc12 [Example 65, N-[(4-(trifluoromethyl)phenyl)methyl]-8-hydroxy-N-methyl-quinoline-5-sulfonamide]
+++ (a pIC50 of above about 7)	Cc1cc(F)ccc1S(=O)(=O)c1ccc(O)c2ncccc12 [Example 20, 5-(4-fluoro-2-methyl-phenyl)sulfonylquinolin-8-ol]
+++ (a pIC50 of above about 7)	O=S(=O)(c1cccc(Cl)c1)c1ccc(O)c2ncccc12 [Example 14, 5-(3-chlorophenyl)sulfonylquinolin-8-ol]
+ (a pIC50 of from about 4.5 to 6)	CC1CNCCN1S(=O)(=O)c1ccc(O)c2ncccc12 (centres unmarked) [Example 106, 5-(2-methylpiperazin-1-yl)sulfonylquinolin-8-ol]
+++ (a pIC50 of above about 7)	O=S(=O)(c1ccc(Cl)cc1)c1ccc(O)c2ncccc12 [Example 9, 5-(4-chlorophenyl)sulfonylquinolin-8-ol]
+++ (a pIC50 of above about 7)	C[C@H](c1ccccc1)N(C)S(=O)(=O)c1ccc(O)c2ncccc12 [Example 50, 8-hydroxy-N-methyl-N-[(1R)-1-phenylethyl]quinoline-5-sulfonamide]
+++ (a pIC50 of above about 7)	O=S(=O)(c1ccc(O)c2ncccc12)N1CCC(Cc2ccccc2)CC1 [Example 84, 5-[(4-benzyl-1-piperidyl)sulfonyl]quinolin-8-ol]
+++ (a pIC50 of above about 7)	O=S(=O)(c1ccccc1C(F)(F)F)c1ccc(O)c2ncccc12 [Example 21, 5-[2-(trifluoromethyl)phenyl]sulfonylquinolin-8-ol]
+++ (a pIC50 of above about 7)	O=S(=O)(c1ccc(O)c2ncccc12)C1CCCC1 [Example 31, 5-cyclopentylsulfonylquinolin-8-ol]
+++ (a pIC50 of above about 7)	O=S(=O)(c1ccc(O)c2ncccc12)N1CCCC1C1CCCCC1 (centres unmarked) [Example 76, 5-(2-cyclohexylpyrrolidin-1-yl)sulfonylquinolin-8-ol]
+++ (a pIC50 of above about 7)	Cc1ccc(S(=O)(=O)c2cc(F)c(O)c3ncccc23)cc1 [Example 110, 7-fluoro-5-(p-tolylsulfonyl)quinolin-8-ol]
